Measured values taken from patent US20260258038A1 (priority 2023, published 2026).

Legend:
[1] = system: Plasmopara viticola; assay: whole plant or invertebrate; assay type: in vivo; conditions: foliar, read-out: control of Plasmopara viticola (percent disease control compared to untreated)
[2] = system: Pythium ultimum; assay: Pythium ultimum / liquid culture (seedling damping off); assay type: cell-based; conditions: Globisporangium ultimum, liquid culture in PDB, 24° C., 2-3 days after application, read-out: control of Pythium ultimum (inhibition of growth, photometric)
Experimental: Pythium ultimum/Liquid Culture (Seedling Damping Off)
Mycelia fragments and oospores of a newly grown liquid culture of the fungus are directly mixed into nutrient broth (PDB potato dextrose broth). After placing a (DMSO) solution of test compound into a microtiter plate (96-well format), the nutrient broth containing the fungal mycelia/spore mixture is added. The test plates are incubated at 24° C. and the inhibition of growth is determined photometrically 2-3 days after application.

[3] = system: Phytophthora infestans; assay: whole plant or invertebrate; assay type: in vivo; conditions: in Solanum lycopersicum, foliar, read-out: control of Phytophthora infestans (percent disease control compared to untreated)

COC(=O)Nc1ccc(-c2cnc3c(C#N)cc(N(C)C(=O)c4ccc(F)c(OC)c4)cn23)cn1 [Compound 55, methyl N-[5-[8-cyano-6-[(4-fluoro-3-methoxy-benzoyl)-methyl-amino]imidazo[1,2-a]pyridin-3-yl]-2-pyridyl]carbamate]
≥ 80%: pest or weed control at 200 ppm [1] | inhibition at 20 ppm [2] | pest or weed control at 200 ppm [3]

COC(=O)Nc1ccc(-c2cnc3c(C)cc(N(C)C(=O)c4ccc(F)c(C)c4)cn23)cn1 [Compound 11, methyl N-[5-[6-[(4-fluoro-3-methyl-benzoyl)-methyl-amino]-8-methyl-imidazo[1,2-a]pyridin-3-yl]-2-pyridyl]carbamate]
≥ 80%: pest or weed control at 200 ppm [1] | inhibition at 20 ppm [2] | pest or weed control at 200 ppm [3]

COC(=O)Nc1ccc(-c2cnc3c(C)cc(N(C)C(=O)c4ccc(C#N)cc4)cn23)cn1 [Compound 47, methyl N-[5-[6-[(4-cyanobenzoyl)-methyl-amino]-8-methyl-imidazo[1,2-a]pyridin-3-yl]-2-pyridyl]carbamate]
≥ 80%: pest or weed control at 200 ppm [1] | inhibition at 20 ppm [2] | pest or weed control at 200 ppm [3]

COC(=O)Nc1ccc(-c2cnc3c(C)cc(N(C)C(=O)c4ccc(F)cc4)cn23)cn1 [Compound 45, methyl N-[5-[6-[(4-fluorobenzoyl)-methyl-amino]-8-methyl-imidazo[1,2-a]pyridin-3-yl]-2-pyridyl]carbamate]
≥ 80%: pest or weed control at 200 ppm [1] | inhibition at 20 ppm [2] | pest or weed control at 200 ppm [3]

COC(=O)Nc1ccc(-c2cnc3c(C)cc(N(C)C(=O)c4ccc(F)c(OC)c4)cn23)cn1 [Compound 13, methyl N-[5-[6-[(4-fluoro-3-methoxy-benzoyl)-methyl-amino]-8-methyl-imidazo[1,2-a]pyridin-3-yl]-2-pyridyl]carbamate]
≥ 80%: pest or weed control at 200 ppm [1] | inhibition at 20 ppm [2] | pest or weed control at 200 ppm [3]

COC(=O)Nc1ccc(-c2cnc3c(C)cc(N(C)C(=O)c4cccc(OC)c4)cn23)cn1 [Compound 53, methyl N-[5-[6-[(3-methoxybenzoyl)-methyl-amino]-8-methyl-imidazo[1,2-a]pyridin-3-yl]-2-pyridyl]carbamate]
≥ 80%: pest or weed control at 200 ppm [1] | inhibition at 20 ppm [2] | pest or weed control at 200 ppm [3]

COC(=O)Nc1ccc(-c2cnc3c(C)cc(N(C)C(=O)c4ccc(Cl)cc4)cn23)cn1 [Compound 49, methyl N-[5-[6-[(4-chlorobenzoyl)-methyl-amino]-8-methyl-imidazo[1,2-a]pyridin-3-yl]-2-pyridyl]carbamate]
≥ 80%: pest or weed control at 200 ppm [1] | inhibition at 20 ppm [2] | pest or weed control at 200 ppm [3]

COC(=O)Nc1ccc(-c2cnc3c(C)cc(N(C)C(=O)c4ccc(F)c(F)c4)cn23)cn1 [Compound 12, methyl N-[5-[6-[(3,4-difluorobenzoyl)-methyl-amino]-8-methyl-imidazo[1,2-a]pyridin-3-yl]-2-pyridyl]carbamate]
≥ 80%: pest or weed control at 200 ppm [1] | inhibition at 20 ppm [2] | pest or weed control at 200 ppm [3]

COC(=O)Nc1ccc(-c2cnc3c(C)cc(N(C)C(=O)c4ccc(Cl)c(C)c4)cn23)cn1 [Compound 41, methyl N-[5-[6-[(4-chloro-3-methyl-benzoyl)-methyl-amino]-8-methyl-imidazo[1,2-a]pyridin-3-yl]-2-pyridyl]carbamate]
≥ 80%: pest or weed control at 200 ppm [1] | inhibition at 20 ppm [2] | pest or weed control at 200 ppm [3]

COC(=O)Nc1ccc(-c2cnc3ccc(N(C)C(=O)c4ccc(F)c(OC)c4)cn23)cn1 [Compound 26, methyl N-[5-[6-[(4-fluoro-3-methoxy-benzoyl)-methyl-amino]imidazo[1,2-a]pyridin-3-yl]-2-pyridyl]carbamate]
≥ 80%: pest or weed control at 200 ppm [1] | inhibition at 20 ppm [2] | pest or weed control at 200 ppm [3]

CCc1cc(N(C)C(=O)c2ccc(F)c(OC)c2)cn2c(-c3ccc(NC(=O)OC)nc3)cnc12 [Compound 57, methyl N-[5-[8-ethyl-6-[(4-fluoro-3-methoxy-benzoyl)-methyl-amino]imidazo[1,2-a]pyridin-3-yl]-2-pyridyl]carbamate]
≥ 80%: pest or weed control at 200 ppm [1] | inhibition at 20 ppm [2] | pest or weed control at 200 ppm [3]

C=CCCc1cc(N(C)C(=O)c2ccc(F)c(OC)c2)cn2c(-c3ccc(NC(=O)OC)nc3)cnc12 [Compound 58, methyl N-[5-[8-but-3-enyl-6-[(4-fluoro-3-methoxy-benzoyl)-methyl-amino]imidazo[1,2-a]pyridin-3-yl]-2-pyridyl]carbamate]
≥ 80%: pest or weed control at 200 ppm [1] | inhibition at 20 ppm [2] | pest or weed control at 200 ppm [3]

COCN(C(=O)c1ccc(F)c(OC)c1)c1ccc2ncc(-c3ccc(NC(=O)OC)nc3)n2c1 [Compound 25, methyl N-[5-[6-[(4-fluoro-3-methoxy-benzoyl)-(methoxymethyl)amino]imidazo[1,2-a]pyridin-3-yl]-2-pyridyl]carbamate]
≥ 80%: pest or weed control at 200 ppm [1] | inhibition at 20 ppm [2] | pest or weed control at 200 ppm [3]
